Read-outs that look alike come from different tables or passages of the source.

The term IC50 denotes the concentration at which inhibition is half-maximal. The term GI50 denotes the concentration giving 50% growth inhibition. Low readings indicate greater sensitivity of the cells, high ones lower sensitivity of the cells.

In experiment [1] the target is T1, human BRD4 bromodomain II (Homo sapiens, UniProt O60885).
T1 construct: human BRD4 bromodomain II [based on Genbank NM_058243, residues 349-460]; host or cells: E. coli
In words: Bromodomain binding assay (AlphaScreen), BRD4 BDII. The essentials:
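Tagged BRD4 BDI or BDII constructs, expressed in E. coli, competed against a K5/K8/K12/K16-acetylated biotin-H4 peptide. Proximity signal between bead pairs after room-temperature incubations gave concentration-response curves, from which IC50 was derived.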

Experiment [2] relates to human SKM-1 acute myeloid leukemia cells. In words: SKM-1 antiproliferation cell-based assay (ATPlite). The note with it: Homo sapiens. Summed up: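 Log-phase cells in RPMI 1640/15% FBS were seeded at 34722 cells/mL and exposed for 4 days to nine-concentration DMSO serial dilutions in triplicate. Viability was read as ATP luminescence (ATPlite 1step), and IC50 values came from variable-slope non-linear regression.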
In general terms: In ATP-based viability assays light output follows the ATP content of the culture.

[3] abbreviates: AlphaScreen assay, Table C2, read-out: BRD4 BDII IC50.
Where [4] appears, read: SKM-1, 96 h, SKM-1 antiproliferation assay, 4 days, Table C2.

Take `CC(C)N1CCN(c2cc(-c3cc(F)cc(-c4ccc(-n5ccn(C)c5=O)c(Cl)c4)c3O)ccc2C(F)(F)F)CC1` [Example 811, 1-(3-chloro-5′-fluoro-2′-hydroxy-3″-(4-isopropylpiperazin-1-yl)-4″-(trifluoromethyl)-[1,1′:3′,1″-terphenyl]-4-yl)-3-methyl-1H-imidazol-2(3H)-one]: the concentration for half-maximal inhibition (IC50) in experiment [1] (setting [3]) lay in the range of 1 to 10 nM. This compound yielded a concentration for 50% growth inhibition (GI50) in experiment [2] (setting [4]) of 30 to 300 nM.

For `CSc1cc(-c2cc(F)cc(-c3cnc(SC)c(N4CCN(C(C)C)CC4)c3)c2O)ccc1-n1ccn(C)c1=O` [Example 818, 1-(5′-fluoro-2′-hydroxy-3′-(5-(4-isopropylpiperazin-1-yl)-6-(methylthio)pyridin-3-yl)-3-(methylthio)-[1,1′-biphenyl]-4-yl)-3-methyl-1H-imidazol-2(3H)-one], in experiment [1] (setting [3]), the IC50 is greater than 100 nM. The compound further yielded a concentration for 50% growth inhibition (GI50) in experiment [2] (setting [4]) of 30 to 300 nM.

As to `CN1CCN(c2ccc(-c3cc(F)cc(-c4cc(N5CCC[C@H](N)C5)c(=O)n(C)c4)c3O)cc2Cl)C1=O` [Example 378, (S)-3-(3-aminopiperidin-1-yl)-5-(3′-chloro-5-fluoro-2-hydroxy-4′-(3-methyl-2-oxoimidazolidin-1-yl)-[1,1′-biphenyl]-3-yl)-1-methylpyridin-2(1H)-one], in experiment [1] (setting [3]), the IC50 was 1 to 10 nM. In experiment [2] (setting [4]), this compound displayed a GI50 of 30 to 300 nM.

As to `CC(=O)Nc1ccc(-c2cccc(-c3ccc(C(F)(F)F)c(N4CCNCC4)c3)c2O)cc1F` [Example 336, N-(3-fluoro-2′-hydroxy-3″-(piperazin-1-yl)-4″-(trifluoromethyl)-[1,1′:3′,1″-terphenyl]-4-yl)acetamide acetate], the IC50 in experiment [1] (setting [3]) was in the range of 10 to 100 nM. In experiment [2] (setting [4]), this compound registered a GI50 of 300 to 3000 nM.

In the case of `CN1CCN(c2ccc(-c3cc(F)cc(-c4ccnc(C5=CCNCC5)c4)c3O)cc2Cl)C1=O` [Example 379, 1-(3-chloro-5′-fluoro-2′-hydroxy-3′-(1′,2′,3′,6′-tetrahydro-[2,4′-bipyridin]-4-yl)-[1,1′-biphenyl]-4-yl)-3-methylimidazolidin-2-one], in experiment [1] (setting [3]), the concentration for half-maximal inhibition (IC50) was in the range of 1 to 10 nM. In addition, the GI50 in experiment [2] (setting [4]) fell in the range of 30 to 300 nM.

Consider `CN1CCN(c2ccc(-c3cc(F)cc(-c4ccc(=O)n(C5CCNCC5)c4)c3O)cc2Cl)C1=O` [Example 477, 5-(3′-chloro-5-fluoro-2-hydroxy-4′-(3-methyl-2-oxoimidazolidin-1-yl)-[1,1′-biphenyl]-3-yl)-1-(piperidin-4-yl)pyridin-2(1H)-one], for which the IC50 in experiment [1] (setting [3]) was in the range of 1 to 10 nM. The GI50 in experiment [2] (setting [4]) lay within 30 to 300 nM.

As for `Cn1ccn(-c2ccc(-c3cc(F)cc(-c4ccnc(N5CCNC(C)(C)C5)c4)c3O)cc2Cl)c1=O` [Example 563, 1-(3-chloro-3′-(2-(3,3-dimethylpiperazin-1-yl)pyridin-4-yl)-5′-fluoro-2′-hydroxy-[1,1′-biphenyl]-4-yl)-3-methyl-1H-imidazol-2(3H)-one], in experiment [1] (setting [3]), the IC50 fell in the range of 0.01 to 1 nM. In experiment [2] (setting [4]), the GI50 fell in the range of 0.3 to 30 nM.

For the compound `Cc1ccc(-c2cc(F)cc(-c3ccc(-n4ccn(C)c4=O)c(Cl)c3)c2O)cc1N1CC(C)(O)C2(CC2)C1` (centres unmarked) [Example 854, 1-(3-Chloro-5′-fluoro-2′-hydroxy-338-(7-hydroxy-7-methyl-5-azaspiro[2.4]heptan-5-yl)-4″-methyl-[1,1′:3′,1″-terphenyl]-4-yl)-3-methyl-1H-imidazol-2(3H)-one], the IC50 in experiment [1] (BRD4 BDII AlphaScreen assay, read-out: BRD4 BD2 IC50) is 1 to 10 nM. The 50% growth inhibitory concentration (GI50) in experiment [2] (SKM-1, SKM-1 antiproliferation assay) lay within 30 to 300 nM.

With `Cn1ccn(-c2ccc(-c3cc(F)cc(-c4cncc(N5CCC6(CCCN6)C5)c4)c3O)cc2Cl)c1=O` (centres unmarked) [Example 692, 1-(3′-(5-(1,7-diazaspiro[4.4]nonan-7-yl)pyridin-3-yl)-3-chloro-5′-fluoro-2′-hydroxy-[1,1′-biphenyl]-4-yl)-3-methyl-1H-imidazol-2(3H)-one], the 50% inhibitory concentration (IC50) in experiment [1] (setting [3]) lay in the range of 0.01 to 1 nM. For the same compound, the GI50 in experiment [2] (setting [4]) lay in the range of 0.3 to 30 nM.

For the compound `Cn1ccn(-c2ccc(-c3cc(F)cc(-c4cc(N5CC[C@](C)(N)C5)n(C)c(=O)c4)c3O)cc2Cl)c1=O` [Example 765, (S)-6-(3-amino-3-methylpyrrolidin-1-yl)-4-(3′-chloro-5-fluoro-2-hydroxy-4′-(3-methyl-2-oxo-2,3-dihydro-1H-imidazol-1-yl)-[1,1′-biphenyl]-3-yl)-1-methylpyridin-2(1H)-one], the IC50 in experiment [1] (setting [3]) lay within 1 to 10 nM. For the same compound, in experiment [2] (setting [4]), the GI50 was 0.3 to 30 nM.

(Values after US20250179059A1 (The Regents of the University of California, priority 2021, published 2025).)
